From paper PMC5395182, “Soaking suggests “alternative facts”: Only co-crystallization discloses major ligand-induced interface rearrangements of a homodimeric tRNA-binding protein indicating a novel mode-of-inhibition” (PLoS ONE, 2017)
Entries after “also recorded” stand apart in the source; their conditions may differ. Read-outs that look alike come from different tables or passages of the source.

Experiments:
Z. mobilis TGT [1] = biological target: T1, Z. mobilis TGT (Zymomonas mobilis subsp. mobilis, UniProt P28720); assay: TGT-catalyzed incorporation of radio-labeled guanine into tRNA (inhibition constants); format: biochemical
T1 construct: Strep-tag II (N, cleaved yes); made in house; host or cells: Escherichia coli
T1 sequence (P28720 whole entry): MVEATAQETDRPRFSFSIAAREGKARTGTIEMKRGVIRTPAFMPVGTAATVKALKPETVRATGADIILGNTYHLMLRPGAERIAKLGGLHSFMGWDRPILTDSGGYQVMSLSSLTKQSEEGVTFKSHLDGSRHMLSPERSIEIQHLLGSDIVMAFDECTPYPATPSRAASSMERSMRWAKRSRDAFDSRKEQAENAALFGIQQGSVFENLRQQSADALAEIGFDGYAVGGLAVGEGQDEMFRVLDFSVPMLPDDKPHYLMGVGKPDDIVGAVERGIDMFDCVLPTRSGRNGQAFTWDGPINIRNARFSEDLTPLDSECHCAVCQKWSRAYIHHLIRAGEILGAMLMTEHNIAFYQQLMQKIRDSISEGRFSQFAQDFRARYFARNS
Protocol: The inhibition constants (Ki) of ligands 1 to 9, which are listed in Fig 2, were determined previously (except that of 4, which was determined in this study)[19, 20, 23, 26] via a well-established assay monitoring the TGT-catalyzed incorporation of radio-labeled guanine into tRNA. […] This substituent addresses the ribose-33/uracil-33 pocket by forming an H-bond to the main chain carbonyl of Ala232 (Fig 1 and S3 and S4 Figs).
The concentration of Z. mobilis TGT amounted to 9 nM, [8-^3H]-guanine was used at a (saturating) concentration of 10 μM and tRNA^Tyr at a concentration of 1.5 μM. Aliquots of 15 μL were withdrawn for scintillation counting every 60 minutes (in total four).
The Ki value was averaged over three measurements. The preparation of E.coli tRNA^Tyr (ECYC2) via in vitro transcription was carried out using the RiboMAX™ Large Scale RNA Production System-T7 (Promega) according to the vendor´s protocol.

TGT homodimer = test system: T2, TGT homodimer; assay: Native ESI-MS of TGT:ligand 1:10 mixtures (dimer destabilization); design: species or system Zymomonas mobilis; conditions: for Relative proportion of TGT monomers: 2.5 µM TGT and 25 µM inhibitor (1:10), 1 M NH4Ac pH 7.5, without ligand 3.3 ± 0.7 %; for effect on TGT dimer stability / monomer proportion, in words: compared to measurements in the absence of any ligand, TGT:ligand 1:10
T2 construct: Strep-tag II (N, cleaved yes); made in house; host or cells: Escherichia coli
Protocol: In order to gain insights into the dimer disturbing potential seen in the crystal structures with the different ligands and to collect evidence for such a behavior also present in solution, native ESI-MS was performed. This technique enables to monitor the oligomerization state of TGT at equilibrium under non-denaturing conditions, in the absence or presence of saturating ligand concentrations. […] To ensure reliability, these comparative experiments were thus carried out adhering to strictly similar conditions (see Materials and methods).
Relative proportions of TGT-monomer signals extracted from individual 1:10 TGT:ligand mixtures (TGT monomer 2.5 μM) were quantified (S7 Fig, S1 Table) and normalized with respect to this value in the absence of any inhibitor.
Nano-ESI-MS analyses were performed as already described in the literature. Briefly, WT-TGT samples were exchanged twice against a 1 M ammonium acetate pH 7.5 buffer using microcentrifuge gel-filtration columns (Zeba 0.5 mL, Thermo Scientific). Next, protein concentration was determined spectrophotometrically at 280 nm (Nano-Drop 2000 spectrophotometer, Thermo Scientific).
Native MS experiments were carried out on a hybrid Q-TOF mass spectrometer (Synapt G2 HDMS, Waters) equipped with an automated chip-based nanoESI source (Triversa Nanomate, Advion Biosciences) operating in the positive ion mode. External calibrations were generated from the multiple charged ions produced by a 2 μM horse heart myoglobin solution diluted in a 1:1 (v/v) water: acetonitrile mixture acidified with 1% (v/v) formic acid (denaturing MS) and singly charged cesium iodide clusters diluted to 2 g∙L^-1 in a 1:1 (v/v) water: isopropanol solution (native MS).
Titration experiments in native conditions (1 M NH4Ac pH 7.5) were next triggered by mixing 2.5 μM TGT monomers with 25 μM of each ligand separately (ratio 1:10). The final DMSO concentration of each mixture never exceeded 0.25% (v/v). Non-covalent TGT dimers and TGT-ligand complexes were preserved in the gas phase according fine-tuned instrumental parameters, improving ion desolvation and transmission while maintaining intact structures (Vc = 80V, Pi = 6 mbar).
Relative quantification of TGT monomers was performed from charge states peak intensities of both monomeric (10 to 14+) and dimeric complexes (15 to 20+), using MassLynx 4.1 (Waters). TGT dimer disruption was determined for each ligand through their destabilization factor (Fig 8) which corresponds to their associated ratio of TGT monomers normalized from the apo-condition (S7 Fig; S1 Table). Standard deviations are calculated here from analytical triplicates. For the sake of reliability and comparability, all these experiments were performed within the same day, from identical experimental and instrumental conditions using the same buffer exchanged TGT batch (frozen and thawed only once).

Z. mobilis TGT [2] = biological target: T1, Z. mobilis TGT; conditions: cited from earlier work
Z. mobilis TGT [3] = biological target: T1, Z. mobilis TGT; design: method as in PMID 24955548; conditions: cited from earlier work
[4] = Ligand dilution in native MS buffer (precipitation); format: physicochemical; conditions: 1 M NH4Ac pH 7.5
[5] = ionization corrected, data for 1 determined previously

SMILES	factor by which 1 is more potent than 3 (Z. mobilis TGT [1]; radio-labeled assay, Ki ratio 1 vs 3)	Relative proportion of TGT monomers (TGT homodimer) [%]	effect on TGT dimer stability / monomer proportion, in words (TGT homodimer)	increase of affinity compared to the unsubstituted lin-benzoguanine (factor) (Z. mobilis TGT [2]; Ki ratio)	Ki (Z. mobilis TGT [2]) [nM]	-TΔS^0 (Z. mobilis TGT [3]; HEPES buffer)	ΔH^0obs (Z. mobilis TGT [3]; HEPES buffer)	Kd (Z. mobilis TGT [3]; ITC, 298 K) [nM]	ΔG^0 (Z. mobilis TGT [3]; ITC)	-TΔS^0 (Z. mobilis TGT [3]; TRIS buffer)	ΔH^0obs (Z. mobilis TGT [3]; TRIS buffer)	-TΔS^0 (Z. mobilis TGT [3]; Tricin buffer)	ΔH^0obs (Z. mobilis TGT [3]; Tricin buffer)	-TΔS^0 (Z. mobilis TGT [3]; [5]) [kJ/mol]	ΔH^0bind (Z. mobilis TGT [3]; [5]) [kcal/mol]	protons picked up during binding (Z. mobilis TGT [3]; slope of linear regression)	Ki (Z. mobilis TGT [1]; determined in this study, competitive with respect to tRNA substrate, averaged over three measurements) [nM]	precipitation upon ligand dilution in buffer [4]
CNc1nc2cc3nc(N)[nH]c(=O)c3cc2[nH]1 [Inhibitor 1]	6	3.4	No effect on dimer stability	70	58 ± 36	34.2 ± 1.9^29 kJ∙mol^-1	-74.8 ± 1.8^29 kJ∙mol^-1	52 ± 7	-41.6 ± 0.3^29 kJ∙mol^-1	9.3 ± 0.9^29 kJ∙mol^-1	-50.9 ± 0.9^29 kJ∙mol^-1	25.1 ± 0.3^29 kJ∙mol^-1	-66.7 ± 0.1^29 kJ∙mol^-1	52.0	-22.4	0.89 protons per mole of the formed complex		
CNc1nc2c(CCNCC3CCC(C#Cc4cccnc4)CC3)c3nc(N)[nH]c(=O)c3cc2[nH]1 (centres unmarked) [Inhibitor 4]		5.6	small effect might be given														193 ± 41	partial precipitation; also recorded: To a lower extent, a similar phenomenon was also observed
